In patent publication US20060148014A1, “Tubulin isotype screening in cancer therapy using hemiasterlin analogs” (priority 2004, published 2006):
pIC50: −log10 of the molar value. Read-outs that look alike come from different tables or passages of the source.

Columns and labels:
[1] = system: BT-20 human breast cancer cell line; assay: Cell growth inhibition assay (methylene blue), BT-20; format: cell-based
From the text: (§1) The following human breast cancer cell lines were obtained from the ATCC. Cells were maintained according to ATCC-recommended culture conditions. AU565 (ATCC Catalog No. ATCC Catalog. No. CRL-2351), BT-20 (ATCC Catalog No. HTB-19), MCF7 (ATCC Catalog No. HTB22), MDA-MB-231 (ATCC Catalog No. HTB-26), MDA-MB-435 (ATCC Catalog No. HTB-129), MDA-MB-468 (ATCC Catalog No. HTB-132), HCC38 (ATCC Catalog No. CRL-2314), HCC70 (ATCC Catalog No. CRL-2315), HCC1143 (ATCC Catalog No. CRL-2321), HCC1428 (ATCC Catalog No. CRL-2327), HCC1500 (ATCC Catalog No. CRL-2329), HCC1806 (ATCC Catalog No. CRL-2335), HCC1954 (ATCC Catalog No. CRL-2338), HCC2218 (ATCC Catalog No. CRL-2343), UACC-812 (ATCC Catalog No. CRL-1897), UACC-893 (ATCC Catalog No. CRL-1902), ZR-75-1 (ATCC Catalog No. CRL-1500), ZR-75-30 (ATCC Catalog No. CRL-1504).
(§2) Cultured human breast cancer cells were placed in 96-well plates and grown in the continuous presence of test compounds for 4 or 7 days. To expose the cells to test compounds for 7 days, medium was replaced with fresh medium containing compounds after 4 days of exposure and cells were incubated for 3 additional days. Cell growth was assessed using modifications (Amin et al., Cancer Res., 47:6040-6045, 1987; incorporated herein by reference) of a methylene blue-based microculture assay (Finlay et al., Anal. Biochem., 139:272-277, 1984; incorporated herein by reference).
(§3) To investigate the possible expression of PgP by the cell lines used in this study, the antiproliferative effects of paclitaxel were determined in the presence and absence of verapamil, a known inhibitor of PgP.

[2] = system: HCC1419 human breast cancer cell line; assay: Cell growth inhibition assay (methylene blue), HCC1419; format: cell-based
Experimental: as §2, §3

[3] = system: HCC1806 human breast cancer cell line; assay: Cell growth inhibition assay (methylene blue), HCC1806; format: cell-based
From the text: as §1, §2, §3

[4] = system: ZR-75-30 human breast cancer cell line; assay: Cell growth inhibition assay (methylene blue), ZR-75-30; format: cell-based
From the text: as §1, §2, §3

[5] = system: HCC70 human breast cancer cell line; assay: Cell growth inhibition assay (methylene blue), HCC70; format: cell-based
From the text: as §1, §2, §3

[6] = system: AU565 human breast cancer cell line; assay: Cell growth inhibition assay (methylene blue), AU565; format: cell-based
From the text: as §1, §2, §3

[7] = system: HCC1143 human breast cancer cell line; assay: Cell growth inhibition assay (methylene blue), HCC1143; format: cell-based
From the text: as §1, §2, §3

[8] = system: MDA-MB-231 human breast cancer cell line; assay: Cell growth inhibition assay (methylene blue), MDA-MB-231; format: cell-based
From the text: as §1, §2, §3

[9] = system: MDA-MB-435 human breast cancer cell line; assay: Cell growth inhibition assay (methylene blue), MDA-MB-435; format: cell-based
From the text: as §1, §2, §3

[10] = system: HCC1428 human breast cancer cell line; assay: Cell growth inhibition assay (methylene blue), HCC1428; format: cell-based
From the text: as §1, §2, §3

[11] = system: ZR-75-1 human breast cancer cell line; assay: Cell growth inhibition assay (methylene blue), ZR-75-1; format: cell-based
From the text: as §1, §2, §3

[12] = system: HCC2218 human breast cancer cell line; assay: Cell growth inhibition assay (methylene blue), HCC2218; format: cell-based
From the text: as §1, §2, §3

[13] = system: HCC1954 human breast cancer cell line; assay: Cell growth inhibition assay (methylene blue), HCC1954; format: cell-based
From the text: as §1, §2, §3

[14] = system: UACC-812 human breast cancer cell line; assay: Cell growth inhibition assay (methylene blue), UACC-812; format: cell-based
From the text: as §1, §2, §3

[15] = system: panel of 19 human breast cancer cell lines; assay: Cell growth inhibition assay, panel of 19 human breast cancer cell lines; format: cell-based; conditions: for fold-difference between IC50's in the most sensitive and the least sensitive cell line: panel of 19 human breast cancer cell lines
From the text: as §1, §2
Antiproliferative effects of four tubulin-binding anticancer agents were evaluated by a methylene blue-based cell growth inhibin assay in a panel of 19 human breast cancer cell lines. The following agents were used in this study: halichondrin analog E7389, hemiasterlin analog E7974, vinblastine, and paclitaxel. Each IC50 determination was conducted in at least three separate experiments. A presence of multidrug resistance efflux pump (P-glycoprotein or PgP) could markedly affect sensitivity of cell lines to test agents and thus mask correlations between beta-tubulin expression and cell lines' sensitivity to test agents. Cell lines were therefore tested for evidence of PgP expression by monitoring effects of the PgP blocker verapamil (used at a 10 μM concentration) on paclitaxel sensitivity. No evidence for PgP expression was found in any of the cell lines tested (Table 4). […] Inter-drug correlations were seen between sensitivities to the three microtubule polymerization inhibitors E7974, E7389, and vinblastine, but not between the microtubule polymerization stabilizer paclitaxel.

[16] = system: HCC1500 human breast cancer cell line; assay: Cell growth inhibition assay (methylene blue), HCC1500; format: cell-based
From the text: as §1, §2, §3

[17] = system: HCC38 human breast cancer cell line; assay: Cell growth inhibition assay (methylene blue), HCC38; format: cell-based
From the text: as §1, §2, §3

[18] = system: UACC-893 human breast cancer cell line; assay: Cell growth inhibition assay (methylene blue), UACC-893; format: cell-based
From the text: as §1, §2, §3

[19] = system: MCF-7 human breast cancer cell line; assay: Cell growth inhibition assay (methylene blue), MCF-7; format: cell-based
From the text: as §1, §2, §3

[20] = system: MDA-MB-468 human breast cancer cell line; assay: Cell growth inhibition assay (methylene blue), MDA-MB-468; format: cell-based
From the text: as §1, §2, §3

[21] = system: cells expressing class II β-tubulin; conditions: Haber et al. J. Biol. Chem. 1995; cited from earlier work
[22] = continuous presence of compound 4 or 7 days, at least three experiments, read-out: Average IC50
[23] = HC-2218, continuous presence of compound 4 or 7 days, at least three experiments, read-out: Average IC50
[24] = MCF7, continuous presence of compound 4 or 7 days, at least three experiments, read-out: Average IC50
[25] = +10 μM verapamil (PgP blocker), read-out: Paclitaxel IC50 (+10 μM verapamil)
[26] = no verapamil, read-out: Paclitaxel IC50 (no verapamil)

C=C1C[C@@H]2CC[C@@]34C[C@H]5O[C@H]6[C@@H](O3)[C@H]3O[C@H](CC[C@@H]3O[C@H]6[C@H]5O4)CC(=O)C[C@@H]3[C@@H](OC)[C@@H](C[C@H](O)CN)O[C@H]3C[C@H]3O[C@@H](CC[C@@H]1O2)C[C@@H](C)C3=C [E7389]
pIC50 [1, 22]: 9.09
pIC50 [2, 22]: 8.80
pIC50 [3, 22]: 9.13
pIC50 [4, 22]: 8.74
pIC50 [5, 22]: 9.20
pIC50 [6, 22]: 9.19
pIC50 [7, 22]: 9.37
pIC50 [8, 22]: 8.76
pIC50 [9, 22]: 9.54
pIC50 [10, 22]: 9.28
pIC50 [11, 22]: 8.92
pIC50 [12, 23]: 8.94
pIC50 [13, 22]: 9.43
pIC50 [14, 22]: 8.93
fold-difference between IC50's in the most sensitive and the least sensitive cell line [15]: 6.2 fold
pIC50 ([15]; range over 19 human breast cancer cell lines): 8.74 to 9.54
pIC50 [16, 22]: 9.25
pIC50 [17, 22]: 9.40
pIC50 [18, 22]: 9.51
pIC50 [19, 24]: 8.84
pIC50 [20, 22]: 9.35

CC[C@]1(O)C[C@@H]2CN(CCc3c([nH]c4ccccc34)[C@@](C(=O)OC)(c3cc4c(cc3OC)N(C)[C@H]3[C@@](O)(C(=O)OC)[C@H](OC(C)=O)[C@]5(CC)C=CCN6CC[C@]43[C@@H]65)C2)C1 [Vinblastine, vinblastine]
pIC50 [1, 22]: 8.94
pIC50 [2, 22]: 8.77
pIC50 [3, 22]: 9.07
pIC50 [4, 22]: 8.62
pIC50 [5, 22]: 9.10
pIC50 [6, 22]: 8.98
pIC50 [7, 22]: 9.28
pIC50 [8, 22]: 8.80
pIC50 [9, 22]: 9.37
pIC50 [10, 22]: 9.26
pIC50 [11, 22]: 8.76
pIC50 [12, 23]: 8.81
pIC50 [13, 22]: 9.15
pIC50 [14, 22]: 8.95
fold-difference between IC50's in the most sensitive and the least sensitive cell line [15]: 5.6 fold
pIC50 [16, 22]: 9.25
pIC50 [17, 22]: 9.14
pIC50 [18, 22]: 8.88
pIC50 [19, 24]: 9.05
pIC50 [20, 22]: 9.09

CC(=O)O[C@H]1C(=O)[C@@]2(C)[C@H]([C@H](OC(=O)c3ccccc3)[C@]3(O)C[C@H](OC(=O)[C@H](O)[C@@H](NC(=O)c4ccccc4)c4ccccc4)C(C)=C1C3(C)C)[C@]1(OC(C)=O)CO[C@@H]1C[C@@H]2O [Paclitaxel, paclitaxel]
pIC50 [1, 25]: 8.57
pIC50 [1, 22]: 8.58
pIC50 [1, 26]: 8.41
pIC50 ([2]; HCC-1419, +10 μM verapamil (PgP blocker), read-out: Paclitaxel IC50 (+10 μM verapamil)): 8.15
pIC50 ([2]; HCC-1419, no verapamil, read-out: Paclitaxel IC50 (no verapamil)): 8.28
pIC50 [2, 22]: 8.27
pIC50 ([3]; HCC-1806, +10 μM verapamil (PgP blocker), read-out: Paclitaxel IC50 (+10 μM verapamil)): 8.72
pIC50 ([3]; HCC-1806, no verapamil, read-out: Paclitaxel IC50 (no verapamil)): 8.74
pIC50 [3, 22]: 8.68
pIC50 [4, 25]: 8.39
pIC50 [4, 22]: 8.39
pIC50 [4, 26]: 8.41
effectiveness in treating cells expressing class II β-tubulin [21]: not be effective
pIC50 ([5]; HCC-70, +10 μM verapamil (PgP blocker), read-out: Paclitaxel IC50 (+10 μM verapamil)): 8.72
pIC50 ([5]; HCC-70, no verapamil, read-out: Paclitaxel IC50 (no verapamil)): 8.70
pIC50 [5, 22]: 8.65
pIC50 ([6]; AU-565, +10 μM verapamil (PgP blocker), read-out: Paclitaxel IC50 (+10 μM verapamil)): 8.32
pIC50 ([6]; AU-565, no verapamil, read-out: Paclitaxel IC50 (no verapamil)): 8.27
pIC50 [6, 22]: 8.60
pIC50 ([7]; HCC-1143, +10 μM verapamil (PgP blocker), read-out: Paclitaxel IC50 (+10 μM verapamil)): 8.54
pIC50 ([7]; HCC-1143, no verapamil, read-out: Paclitaxel IC50 (no verapamil)): 8.55
pIC50 [7, 22]: 8.68
pIC50 [8, 25]: 8.29
pIC50 [8, 22]: 8.29
pIC50 [8, 26]: 8.31
pIC50 [9, 25]: 8.57
pIC50 [9, 22]: 8.62
pIC50 [9, 26]: 8.59
pIC50 ([10]; HCC-1428, +10 μM verapamil (PgP blocker), read-out: Paclitaxel IC50 (+10 μM verapamil)): 8.02
pIC50 ([10]; HCC-1428, no verapamil, read-out: Paclitaxel IC50 (no verapamil)): 8.05
pIC50 [10, 22]: 8.30
pIC50 [11, 25]: 8.23
pIC50 [11, 22]: 8.47
pIC50 [11, 26]: 8.28
pIC50 [12, 23]: 8.17
pIC50 ([12]; HCC-2218, +10 μM verapamil (PgP blocker), read-out: Paclitaxel IC50 (+10 μM verapamil)): 8.30
pIC50 ([12]; HCC-2218, no verapamil, read-out: Paclitaxel IC50 (no verapamil)): 8.25
pIC50 ([13]; HCC-1954, +10 μM verapamil (PgP blocker), read-out: Paclitaxel IC50 (+10 μM verapamil)): 7.93
pIC50 ([13]; HCC-1954, no verapamil, read-out: Paclitaxel IC50 (no verapamil)): 7.93
pIC50 [13, 22]: 8.07
pIC50 [14, 25]: 8.72
pIC50 [14, 22]: 8.84
pIC50 [14, 26]: 8.57
fold-difference between IC50's in the most sensitive and the least sensitive cell line [15]: 5.8 fold
pIC50 ([16]; HCC-1500, +10 μM verapamil (PgP blocker), read-out: Paclitaxel IC50 (+10 μM verapamil)): 8.49
pIC50 ([16]; HCC-1500, no verapamil, read-out: Paclitaxel IC50 (no verapamil)): 8.34
pIC50 [16, 22]: 8.61
pIC50 ([17]; HCC-38, +10 μM verapamil (PgP blocker), read-out: Paclitaxel IC50 (+10 μM verapamil)): 8.21
pIC50 ([17]; HCC-38, no verapamil, read-out: Paclitaxel IC50 (no verapamil)): 8.23
pIC50 [17, 22]: 8.53
pIC50 [18, 25]: 8.39
pIC50 [18, 22]: 8.56
pIC50 [18, 26]: 8.20
pIC50 ([19]; MCF7, +10 μM verapamil (PgP blocker), read-out: Paclitaxel IC50 (+10 μM verapamil)): 8.57
pIC50 [19, 24]: 8.64
pIC50 ([19]; MCF7, no verapamil, read-out: Paclitaxel IC50 (no verapamil)): 8.48
pIC50 [20, 25]: 8.27
pIC50 [20, 22]: 8.37
pIC50 [20, 26]: 8.29

C/C(=C\[C@H](C(C)C)N(C)C(=O)[C@@H](NC(=O)[C@H]1CCCCN1C(C)C)C(C)(C)C)C(=O)O [E7974]
fold-difference between IC50's in the most sensitive and the least sensitive cell line [15]: 6.8 fold
